US7300946B2, “N-(substituted arylmethyl)-4-(disubstituted methyl) piperidines and pyridines” (Bayer CropScience AG, priority 2002, dated 2007)

System: tobacco budworm (Heliothis virescens [Fabricius])
Test: surface-treated diet test against the tobacco budworm
Type: in vivo
Conditions: tobacco budworm second instar larvae, 0.25 millimoles of candidate insecticide on the surface of the diet, five-day exposure; for Percent Mortality: compared to total number of insects infested; for Percent Growth Inhibition: inhibition of insect weight relative to untreated controls
In short: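 Wheat germ artificial diet surface-treated with 40 µL of 50 mM DMSO stock diluted 1:7 in 1:1 water/acetone (0.25 millimolar on diet), or sub-multiples for rate tests. One second-instar larva per well, 25° C, 60% RH, 5 days; percent weight inhibition vs DMSO controls and percent mortality.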

SMILES	Percent Mortality (surface-treated diet)	Percent Growth Inhibition (surface-treated diet)	Percent Mortality	Percent Growth Inhibition
O=C(Nc1ccc(Cl)cc1)OC(c1ccc(C(F)(F)F)cc1)C1CCN(Cc2ccc(-c3ccccn3)cc2)CC1 (stereo not shown) [Compound 627]	100%	100%		
CCCOc1ccc(CN2CCC(=C(c3cccc(C(F)(F)F)c3)c3cccc(C(F)(F)F)c3)CC2)cc1 [Compound 45]	0%	24%		
Cn1nnc(-c2ccc(CN3CCC(C(NC(=O)c4cccc(Cl)c4)c4ccc(OC(F)(F)F)cc4)CC3)cc2)n1 (stereo not shown) [Compound 323]	67%	98%		
CCCOc1ccc(CN2CCC(C(OC(=O)Nc3cccc(C(F)(F)F)c3)c3cccc(C(F)(F)F)c3)CC2)cc1 (stereo not shown) [Compound 488]	100%	100%		
O=C(Nc1ccc(Cl)cc1)OC(c1ccc(C(F)(F)F)cc1)C1CC[N+]([O-])(Cc2ccc(-c3ccccc3)cc2)CC1 (stereo not shown) [Compound 747]			100%	100%
CCCOc1ccc(CN2CCC(C(OC(=O)Nc3cc(F)cc(F)c3)c3ccc(F)cc3)CC2)cc1 (stereo not shown) [Compound 479]	100%	100%		
O=C(Nc1ccc(F)cc1)OC(c1ccc(OC(F)(F)F)cc1)C1CCN(Cc2ccccc2)CC1 (stereo not shown) [Compound 458]	0%	94%		
O=C(Nc1cc(F)cc(F)c1)OC(c1ccc(C(F)(F)F)cc1)C1CC[N+]([O-])(Cc2ccc(Oc3ncccc3Cl)cc2)CC1 (stereo not shown) [Compound 755]			100%	100%
[O-][N+]1(Cc2ccc(OCC3CC3)cc2)CCC(=C(c2ccc(C(F)(F)F)cc2)c2ccc(C(F)(F)F)cc2)CC1 (stereo not shown) [Compound 98]	100%	100%		
O=C(Nc1cc(F)cc(F)c1)OC(c1ccc(OC(F)(F)F)cc1)C1CCN(Cc2ccc(I)cc2)CC1 (stereo not shown) [Compound 462]	83%	100%		
CCCCCc1ccc(CN2CCC(C(OC(=O)Nc3cc(F)cc(F)c3)c3ccc(C(F)(F)F)cc3)CC2)cc1 (stereo not shown) [Compound 467]	0%	68%		
Cn1nnc(-c2ccc(CN3CCC(C(NCc4ccccc4Cl)c4ccc(OC(F)(F)F)cc4)CC3)cc2)n1 (stereo not shown) [Compound 309]	100%	100%		
CCn1nnc(-c2ccc(CN3CCC(C(OC(=O)Nc4ccc(Cl)c(Cl)c4)c4ccc(-c5ccccc5)cc4)CC3)cc2)n1 (stereo not shown) [Compound 612]	0%	48%		
CCCOc1ccc(CN2CCC(C(OC(=O)Nc3ccc(C(F)(F)F)cc3)c3ccc(F)cc3)CC2)cc1 (stereo not shown) [Compound 478]	100%	100%		
CC(C)OC(=O)Nc1ccc(CN2CCC(=C(c3ccc(C(F)(F)F)cc3)c3ccc(C(F)(F)F)cc3)CC2)cc1 [Compound 58]	100%	100%		
CCn1nnc(-c2ccc(CN3CCC(C(OC(=O)Nc4ccc(Cl)cc4)c4ccc(OC)cc4)CC3)cc2)n1 (stereo not shown) [Compound 601]	100%	100%		
CCn1nnc(-c2ccc(CN3CCC(=C(c4ccccc4)c4ccc(C(F)(F)F)cc4)CC3)cc2)n1 [Compound 80]	33%	100%		
O=C(Nc1ccc(Cl)cn1)OC(c1ccc(C(F)(F)F)cc1)C1CCN(Cc2ccc(Oc3ccccn3)cc2)CC1 (stereo not shown) [Compound 439]	100%	100%		
CCn1nnc(-c2ccc(CN3CCC(C(OCc4ccc(OC(F)(F)F)cc4)c4ccc(OC(F)(F)F)cc4)CC3)cc2)n1 (stereo not shown) [Compound 305]	100%	95%		
O=C(Nc1ccc(Cl)nc1)OC(c1ccc(C(F)(F)F)cc1)C1CCN(Cc2ccc(Oc3ccccn3)cc2)CC1 (stereo not shown) [Compound 445]	100%	100%		
O=C(Nc1ccc(Cl)cc1)OC(c1ccc(Cl)cc1)C1CCN(Cc2ccc(Oc3ncccn3)cc2)CC1 (stereo not shown) [Compound 712]			100%	100%
Cn1nnc(-c2ccc(CN3CCC(C(NC(=O)Nc4ccc(Br)cc4)c4ccc(OC(F)(F)F)cc4)CC3)cc2)n1 (stereo not shown) [Compound 337]	100%	100%		
O=C(Nc1cc(F)cc(F)c1)OC(c1ccc(C(F)(F)F)cc1)C1CC[N+]([O-])(Cc2ccc(Oc3ccccc3F)cc2)CC1 (stereo not shown) [Compound 750]			100%	100%
CC(C)OC(=O)Nc1ccc(CN2CCC(C(OC(=O)Nc3ccc(Cl)cc3)c3ccc(OC(F)(F)F)cc3)CC2)cc1 (stereo not shown) [Compound 513]	100%	100%		

SMILES	Percent Mortality (surface-treated diet)	Percent Growth Inhibition (surface-treated diet)	Percent Mortality	Percent Growth Inhibition
CCON=Cc1ccc(CN2CCC(C(OC(=O)Nc3cccc(F)c3)c3ccc(C(F)(F)F)cc3)CC2)cc1 (stereo not shown) [Compound 535]	100%	100%		
CCCOc1ccc(CN2CCC(C(OC(=O)Nc3ccc(C(F)(F)F)cc3)c3ccc(Cl)c(Cl)c3)CC2)cc1 (stereo not shown) [Compound 484]	100%	100%		
CNC(=O)Oc1ccc(C[N+]2([O-])CCC(=C(c3ccc(OC(F)(F)F)cc3)c3ccc(OC(F)(F)F)cc3)CC2)cc1 (stereo not shown) [Compound 829]			100%	100%
CCn1nnc(-c2ccc(CN3CCC(C(OC(=O)c4ccc(C(F)(F)F)cc4)c4ccc(OC(F)(F)F)cc4)CC3)cc2)n1 (stereo not shown) [Compound 307]	100%	92%		
O=C(Nc1ccc(Cl)cc1)OC(c1ccc(C(F)(F)F)cc1)C1CCN(Cc2ccc(Oc3ccccn3)cc2)CC1 (stereo not shown) [Compound 666]	100%	100%		
CC(C)COC(=O)Nc1ccc(C[N+]2([O-])CCC(=C(c3ccc(C(F)(F)F)cc3)c3ccc(C(F)(F)F)cc3)CC2)cc1 (stereo not shown) [Compound 104]	100%	100%		
O=C(Nc1cc(F)cc(F)c1)OC(c1ccc(F)cc1)C1CC[N+]([O-])(Cc2ccc(Oc3ccccn3)cc2)CC1 (stereo not shown) [Compound 752]			100%	100%
COc1ccccc1C(=O)Nc1ccc(CN2CCC(C(OC(=O)Nc3cc(F)cc(F)c3)c3ccc(C(F)(F)F)cc3)CC2)cc1 (stereo not shown) [Compound 553]	100%	100%		
Cn1nnc(-c2ccc(CN3CCC(C(NCc4ccc(Cl)cc4)c4ccc(OC(F)(F)F)cc4)CC3)cc2)n1 (stereo not shown) [Compound 311]	100%	100%		
CC(C)OC(=O)Nc1ccc(CN2CCC(C(OC(=O)Nc3cccc(F)c3)c3cc(Cl)cc(Cl)c3)CC2)cc1 (stereo not shown) [Compound 509]	100%	100%		
CC(C)OC(=O)Nc1ccc(CN2CCC(C(OC(=O)Nc3ccc(Cl)cc3)c3ccc(F)cc3)CC2)cc1 (stereo not shown) [Compound 503]	100%	100%		
O=C(Nc1ccc(Cl)cc1)OC(c1cccc(C(F)(F)F)c1)C1CCN(Cc2ccc(Oc3ccccn3)cc2)CC1 (stereo not shown) [Compound 652]	100%	100%		
O=C(Nc1cc(F)cc(F)c1)OC(c1ccc(Cl)cc1)C1CCN(Cc2ccc(Oc3ccccn3)cc2)CC1 (stereo not shown) [Compound 631]	100%	100%		
O=C(Nc1cc(F)cc(F)c1)OC(C1=CCN(Cc2ccc(Oc3ncccn3)cc2)CC1)c1ccc(C(F)(F)F)cc1 (stereo not shown) [Compound 786, N-(3,5-difluorophenyl)({1-[(4-pyrimidin-2-yloxyphenyl)methyl](4-1,2,5,6-tetrahydropyridyl)}[4-(trifluoromethyl)phenyl]methoxy)carboxamide]			100%	100%
FC(F)(F)c1ccc(C(=C2CCN(Cc3ccc(Oc4ncccn4)cc3)CC2)c2ccc(C(F)(F)F)cc2)cc1 [Compound 824]			100%	100%
COc1ccc(C(=O)Nc2ccc(CN3CCC(C(OC(=O)Nc4cc(F)cc(F)c4)c4ccc(C(F)(F)F)cc4)CC3)cc2)cc1 (stereo not shown) [Compound 554]	0%	99%		
O=C(Nc1ccc(Cl)cc1)OC(c1ccc(C(F)(F)F)cc1)C1CCN(Cc2ccc(Oc3ncccn3)cc2)CC1 (stereo not shown) [Compound 729]			100%	100%
Cn1nnc(-c2ccc(CN3CCC(C(NCc4ccc(F)cc4)c4ccc(OC(F)(F)F)cc4)CC3)cc2)n1 (stereo not shown) [Compound 315]	100%	100%		
Cn1nnc(-c2ccc(CN3CCC(C(NC(=O)c4ccccc4Cl)c4ccc(OC(F)(F)F)cc4)CC3)cc2)n1 (stereo not shown) [Compound 322]	0%	78%		
CCn1nnc(-c2ccc(CN3CCC(C(OC(=O)Nc4ccc(Cl)cc4)c4cc(F)cc(F)c4)CC3)cc2)n1 (stereo not shown) [Compound 590]	100%	100%		
O=C(Nc1cc(F)cc(F)c1)OC(c1ccc(C(F)(F)F)cc1)C1CC[N+]([O-])(Cc2ccc(Oc3ncccc3C(F)(F)F)cc2)CC1 (stereo not shown) [Compound 759]			100%	100%
CCn1nnc(-c2ccc(CN3CCC(C(OC(=O)Nc4ccc(Oc5ccccc5)cc4)c4ccc(C(F)(F)F)cc4)CC3)cc2)n1 (stereo not shown) [Compound 298]	100%	100%		
Cn1nnc(-c2ccc(CN3CCC(C(OC(=O)Nc4ccc(Cl)cc4)c4ccc(OC(F)(F)F)cc4)CC3)cc2)n1 (stereo not shown) [Compound 266]	100%	100%		
